One assay concerns the target T1, human CB1 receptor (Homo sapiens, UniProt P21554).
T1 construct: expressed in transfected cells; host or cells: CHO (Chinese Hamster Ovary) cells
The assay can be described thus: In-vitro determination of efficacy and potency at the human CB1 receptor expressed in CHO cells (luciferase reporter assay). The conditions noted are these: CHO cells expressing the human CB1 receptor and a luciferase reporter gene; 5 h at 37 °C. In kind it is cell-based. As to the method:
Methods to determine receptor binding as well as in vitro biological activity of cannabinoid receptor modulators are well known in the art. In general, expressed receptor is contacted with the compound to be tested and binding or stimulation or inhibition of a functional response is measured. To measure a functional response isolated DNA encoding the CB1 receptor gene, preferably the human receptor, is expressed in suitable host cells. Such a cell might be the Chinese Hamster Ovary cell, but other cells are also suitable. Preferably the cells are of mammalian origin. Methods to construct recombinant CB1 expressing cell lines are well known in the art (Sambrook et al, Molecular Cloning: a Laboratory Manual, Cold Spring Harbor Laboratory Press, Cold Spring Harbor, latest edition). Expression of the receptor is attained by expression of the DNA encoding the desired protein. Techniques for ligation of additional sequences and construction of suitable expression systems are all, by now, well known in the art. Portions or all of the DNA encoding the desired protein can be constructed synthetically using standard solid phase techniques, preferably to include restriction sites for ease of ligation. Suitable control elements for transcription and translation of the included coding sequence can be provided to the DNA coding sequences. As is well known, expression systems are now available which are compatible with a wide variety of hosts, including prokaryotic hosts such as bacteria and eukaryotic hosts such as yeast, plant cells, insect cells, mammalian cells, avian cells and the like. Cells expressing the receptor are then contacted with the test compound to observe binding, or stimulation or inhibition of a functional response. Alternatively isolated cell membranes containing the expressed CB1 (or CB2) receptor may be used to measure binding of compound. For measurement of binding radioactively or fluorescently labelled compounds may be used. The most widely used radiolabelled cannabinoid probe is [^3H]CP55940, which has approximately equal affinity for CB1 and CB2 binding sites. Functional CB1 agonist activity may be measured by determining the second messenger response, such as for example measurement of receptor mediated changes in cAMP or MAPkinase pathways. Thus, such a method involves expression of the CB1 receptor on the cell surface of a host cell and exposing the cell to the test compound. The second messenger response is then measured. The level of second messenger will be reduced or increased, depending on the effect of the test compound upon binding to the receptor.
In-vitro determination of efficacy and potency at the human CB1 receptor expressed in CHO cells
Chinese Hamster Ovary (CHO) cells expressing the human CB1 receptor and a luciferase reporter gene were suspended in phenol red/serum free DMEM/F-12 nut mix containing penicillin/streptomycin (50U/50 µg/ml) and fungizone (1 µg/ml) and seeded into 96 well plates at a density of 3 x 10^4 cells per well (100 µl final volume). Cells were incubated overnight (approx. 18 h at 37°C, 5% CO2/95% air) prior to assay. The test compound (10 mM solution in dimethylsulfoxide) was diluted in F12 Nut Mix to give a range of stock solutions from 0.11 mM to 0.11 nM. The stock solutions (10 µl) were added directly to the relevant wells. The plates were incubated at 37 °C for 5 h to allow agonist-induced expression of the luciferase enzyme. Under subdued light, LucLite substrate (Packard; reconstituted as per manufacturer's instructions; 100 µl) was added to each well. Plates were covered with Top Seal and then incubated at room temperature for 5 minutes before counting on the Packard TopCount (single photon counting, 0.01 minute count time, 5 minute count delay). A "best-fit" curve was fitted by a minimum sum of squares method to the plot of counts per second (CPS) against compound concentration (M) to obtain an EC50 value. […]
A general note: A reporter such as luciferase makes a cellular process visible.

For the next assay, the system named is Mice. Nature of the assay: Formalin Paw Test in Mice. Type of assay: in vivo. As to conditions: Mus musculus, iv, administered intravenously 5 minutes before 5% formalin, Phase 2 = between 20 and 30 min after formalin injection, read-out: ED50, inhibition of the nociceptive behaviour of Phase 2. Here is the method: Formalin Paw Test in Mice
Four - six groups of six mice were treated with vehicle and one of four to five doses of the test compound (typically between 0.03, 0.1, 3 and 10 µmol/kg), administered intravenously into the tail vein (vehicle: 10% Tween-80 in saline; injection volume 10 ml/kg). This injection was followed 5 minutes later by 20 µl of 5% formalin, which was administered sub-cutaneously to the dorsum of the left hind paw. Immediately after formalin administration the animal was placed in a test chamber and data acquisition, using a detection device (Automated Nociception Analyser (ANA); Department of Anesthesiology, University of California, San Diego), was started, independently for each chamber. The nociceptive behaviour was measured as the number of counts (licking, lifting, biting and flinching actions) detected within the two phases of nociception (Yaksh et al, 2001). The nociceptive behaviour between 0 and 5 min after formalin injection (Phase 1) and between 20 and 30 min after formalin injection (Phase 2) was recorded and number of counts for each mouse, compared to the mean number of counts for the vehicle treated animals, was calculated. Once values for each mouse were obtained, the mean and s.e.m. were calculated for each treatment group. The percent inhibition data were then used to calculate ED50 values for Phase 1 and Phase 2.

What is called pEC50 is −log10 of the EC50, conventionally taken in molar units. A lower pEC50 goes with a high EC50. The EC50 is the concentration giving half of the maximal effect. What is called ED50 is the dose that gives a 50% effect, or the effect in half of the subjects.

T1 sequence (P21554 whole entry): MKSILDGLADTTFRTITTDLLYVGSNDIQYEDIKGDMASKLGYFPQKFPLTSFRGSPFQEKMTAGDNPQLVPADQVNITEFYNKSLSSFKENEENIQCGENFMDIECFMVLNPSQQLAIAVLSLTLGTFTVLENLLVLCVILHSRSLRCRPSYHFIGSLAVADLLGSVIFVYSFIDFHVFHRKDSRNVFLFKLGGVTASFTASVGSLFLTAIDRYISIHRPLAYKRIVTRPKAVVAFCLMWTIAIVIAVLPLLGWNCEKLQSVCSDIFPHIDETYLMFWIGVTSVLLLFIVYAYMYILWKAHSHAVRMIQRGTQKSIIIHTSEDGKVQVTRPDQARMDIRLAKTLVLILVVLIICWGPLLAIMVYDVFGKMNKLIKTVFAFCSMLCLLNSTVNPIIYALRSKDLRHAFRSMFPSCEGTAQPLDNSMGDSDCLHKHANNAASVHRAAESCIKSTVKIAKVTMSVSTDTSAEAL

In the case of “7-Ethyl-3-[(5-{N-[4-(carboxamido)methyl]piperidin-1-yl}methyl)-([1,2,4]-thiadiazol-3-yl)]-1-(tetrahydropyran-4-yl)methyl-1H-indole [Example 12]”, the pEC50 at human CB1 receptor worked out at 6.9.

`COCCN(Cc1nc(-c2cn(CC3CCOCC3)c3c(Cl)cccc23)ns1)S(C)(=O)=O` [Example 7, 7-Chloro-3-({5-[(N-{2-methoxy}ethyl)-(N-{methylsulfonyl})amino]methyl}-([1,2,4]-thiadiazol-3-yl))-1-(tetrahydropyran-4-yl)methyl-1H-indole] gave an EC50 on human CB1 receptor of 79.4 nM.

The molecule `CCc1cccc2c(-c3nsc(CN(C)CC(N)=O)n3)cn(CC3CCOCC3)c12` [Example 9, 7-Ethyl-3-[(5-{[N-(carboxamido)methyl]-N-methylamino}methyl)-([1,2,4]-thiadiazol-3-yl)]-1-(tetrahydropyran-4-yl)methyl-1H-indole] gave an EC50 on human CB1 receptor of 126 nM.

Consider `CCc1cccc2c(-c3nsc(CN4CCC(C(=O)NCCO)CC4)n3)cn(CC3CCOCC3)c12` [Example 10A, 7-Ethyl-3-[(5-{4-[(N-{2-hydroxy}ethyl)carboxamido]piperidin-1-yl}methyl)-([1,2,4]-thiadiazol-3-yl)]-1-(tetrahydropyran-4-yl)methyl-1H-indole], for which, in the assay on Mice, the ED50 is < 5 µmol/kg. The same molecule gave an EC50 at human CB1 receptor of 12.6 nM.

Regarding `O=C(NCCO)[C@H]1CCCN(Cc2nc(-c3cn(CC4CCS(=O)(=O)CC4)c4c(Cl)cccc34)ns2)C1` [Example 13, (S)-7-Chloro-3-[(5-{[3-N-(2-hydroxyethyl)carboxamido]piperidin-1-yl}methyl)-([1,2,4]-thiadiazol-3-yl)]-1-(1,1-dioxo-hexahydrothiopyran-4-yl)methyl-1H-indole], at human CB1 receptor, the pEC50 is on record as 6.9.

Regarding `CS(=O)(=O)N(CCO)Cc1nc(-c2cn(CC3CCOCC3)c3c(Cl)cccc23)ns1` [Example 15, 7-Chloro-3-({5-[(N-{2-hydroxy}ethyl)-(N-{methylsulfonyl})amino]methyl}-([1,2,4]-thiadiazol-3-yl))-1-(tetrahydropyran-4-yl)methyl-1H-indole], the ED50 in the assay with Mice was < 5 µmol/kg. For the same molecule, a half-maximal effect on human CB1 receptor (EC50) was put at 20 nM.

With `OCC1CCN(Cc2nnc(-c3cn(CC4CCCCC4)c4c(Cl)cccc34)o2)CC1` [Example 17, 7-Chloro-3-[(5-{4-[hydroxymethyl]piperidin-1-yl}methyl)-([1,3,4]-oxadiazol-2-yl)]-1-(cyclohexyl)methyl-1H-indole], the EC50 at human CB1 receptor was 126 nM.

The molecule `CS(=O)(=O)N1CCC[C@H]1c1nnc(-c2cn(CC3CCOCC3)c3c(Cl)cccc23)o1` [Example 18, (S)-7-Chloro-3-[(5-{N-methylsulfonyl}pyrrolidin-2-yl)-([1,3,4]-oxadiazol-2-yl)]-1-(tetrahydropyran-4-yl)methyl-1H-indole] yielded a pEC50 on human CB1 receptor of 7.2.

With `O=C(NCCO)C1CCN(Cc2nc(-c3cn(CC4CCOCC4)c4c(Cl)cccc34)no2)CC1` [Example 19, 7-Chloro-3-[(5-{4-[(N-{2-hydroxy}ethyl)carboxamido]piperidin-1-yl}methyl)-([1,2,4]oxadiazol-3-yl)]-1-(tetrahydropyran-4-yl)methyl-1H-indole], in the assay on Mice, the ED50 is < 5 µmol/kg. The same molecule had an EC50 on human CB1 receptor of 79.4 nM.

Consider `CN(CC(N)=O)Cc1nc(-c2cn(CC3CCOCC3)c3c(Cl)cccc23)no1` [Example 20, 7-Chloro-3-[(5-{[N-(carboxamido)methyl]-N-methylamino}methyl)-([1,2,4]oxadiazol-3-yl)]-1-(tetrahydropyran-4-yl)methyl-1H-indole], for which, in the assay with Mice, the ED50 is < 5 µmol/kg. This molecule had a concentration giving a half-maximal response (EC50) at human CB1 receptor of 39.8 nM.

Regarding `CN(CC(=O)NCC(N)=O)Cc1nc(-c2cn(CC3CCOCC3)c3c(Cl)cccc23)no1` [Example 20A], on human CB1 receptor, the EC50 is 31.6 nM.

`CN(CC(=O)NCCO)Cc1nc(-c2cn(CC3CCOCC3)c3c(Cl)cccc23)no1` [Example 20B, 7-Chloro-3-({5-[(N-{[N-(2-hydroxyethyl)]carboxamido}methyl)-N-methylamino]methyl}-[1,2,4]oxadiazol-3-yl)-1-(tetrahydropyran-4-yl)methyl-1H-indole]: at human CB1 receptor, the EC50 is 50.1 nM. This EC50 lies about 1.6-fold higher than the previous one.

With `COCC(=O)NCc1nc(-c2cn(CC3CCOCC3)c3c(Cl)cccc23)no1` [Example 24, 7-Chloro-3-[(5-{[N-methoxymethylformyl]amino}methyl)-([1,2,4]-oxadiazol-3-yl)]-1-(tetrahydropyran-4-yl)methyl-1H-indole], at human CB1 receptor, the EC50 was 200 nM.

Molecule `CN(C)S(=O)(=O)N(CCO)Cc1nc(-c2cn(CC3CCOCC3)c3c(Cl)cccc23)no1` [Example 25, 7-Chloro-3-[(5-{N-(N',N'-dimethylsulfonamido)}-(N-{2-hydroxy}ethylamino)methyl)-([1,2,4]-oxadiazol-3-yl)]-1-(tetrahydropyran-4-yl)methyl-1H-indole] had an EC50 at human CB1 receptor of 100 nM. Against the preceding molecule, the EC50 is about 2-fold lower.

Source of the values: EP1919471B1, “(INDOL-3-YL)-HETEROCYCLE DERIVATIVES AS AGONISTS OF THE CANNABINOID CB1 RECEPTOR” (Merck Sharp & Dohme B.V., priority 2005, dated 2007).
